# Measurements: publication PMC7576608, “Mechanisms of telomerase inhibition by oxidized and therapeutic dNTPs” (Nature Communications, 2020)
# Where “and” joins values, the source holds several entries; their conditions need not be identical. Identical values can stand only once. Like-named read-outs stand apart in the source and are kept apart here.
# Key:
# telomerase [1] = target: T1, telomerase (Homo sapiens, UniProt O14746); assay: Telomerase repeat processivity IC50: modified dNTP titrated into reactions with all four natural dNTPs; type: biochemical; set-up: made in house; anti-FLAG immunopurification, eluted with 3xFLAG peptide
# T1 sequence (O14746 whole entry): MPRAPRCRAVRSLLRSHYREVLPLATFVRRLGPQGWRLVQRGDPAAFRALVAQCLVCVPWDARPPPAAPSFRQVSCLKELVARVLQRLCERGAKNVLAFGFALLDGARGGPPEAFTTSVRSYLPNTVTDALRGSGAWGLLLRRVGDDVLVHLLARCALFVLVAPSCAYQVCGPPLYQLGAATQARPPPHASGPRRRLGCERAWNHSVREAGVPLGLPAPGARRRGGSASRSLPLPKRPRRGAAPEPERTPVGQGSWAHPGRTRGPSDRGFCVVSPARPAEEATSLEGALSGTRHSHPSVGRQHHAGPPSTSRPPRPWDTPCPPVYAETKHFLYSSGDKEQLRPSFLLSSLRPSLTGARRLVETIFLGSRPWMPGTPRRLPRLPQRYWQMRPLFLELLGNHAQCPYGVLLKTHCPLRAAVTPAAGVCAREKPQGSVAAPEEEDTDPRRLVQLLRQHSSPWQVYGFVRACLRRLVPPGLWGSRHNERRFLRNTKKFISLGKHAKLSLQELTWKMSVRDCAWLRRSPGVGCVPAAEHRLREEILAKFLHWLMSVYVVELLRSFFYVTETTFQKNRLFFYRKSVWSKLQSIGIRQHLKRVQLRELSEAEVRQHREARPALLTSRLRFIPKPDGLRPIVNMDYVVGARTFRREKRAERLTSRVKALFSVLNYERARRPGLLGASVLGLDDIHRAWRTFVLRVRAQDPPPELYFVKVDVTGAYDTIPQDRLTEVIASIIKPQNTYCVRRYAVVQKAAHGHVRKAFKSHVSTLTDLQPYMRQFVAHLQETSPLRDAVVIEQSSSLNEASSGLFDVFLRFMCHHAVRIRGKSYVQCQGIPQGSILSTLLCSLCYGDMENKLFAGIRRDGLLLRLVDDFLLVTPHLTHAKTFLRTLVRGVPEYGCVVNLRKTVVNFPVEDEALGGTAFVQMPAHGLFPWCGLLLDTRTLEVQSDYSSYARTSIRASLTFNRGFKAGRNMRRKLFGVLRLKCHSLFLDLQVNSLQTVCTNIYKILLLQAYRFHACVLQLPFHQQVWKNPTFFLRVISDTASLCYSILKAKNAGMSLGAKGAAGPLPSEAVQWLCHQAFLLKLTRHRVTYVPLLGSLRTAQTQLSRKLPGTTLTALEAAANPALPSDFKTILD
# Procedure, shortened: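 Immunopurified human telomerase reactions with cellular-relevant levels of all four natural dNTPs plus modified dNTP titrated 0–10,000 μM, 1 h at 37 °C; products resolved on denaturing gels and phosphorimaged. Repeat processivity R1/2 = −ln(2)/slope of ln(100−%LB) vs repeat number; IC50 is concentration halving bulk repeat processivity.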
# telomerase [2] = target: T1, telomerase; assay: Telomerase extension after insertion of modified dNTP (percent of product terminated at each template position); type: biochemical; set-up: made in house; anti-FLAG immunopurification, eluted with 3xFLAG peptide; conditions: for Percent of Total Product: 50 μM each dATP, dTTP and dGTP or 6-thio-dGTP, Mean
# Protocol: Direct telomerase assays were conducted with 5 nM ^32P-end labeled primer a and d Primer 3 (AGGGTT)3, b Primer 1 (TTAGGG)3, or c Primer 2 […]. […] Products were separated on denaturing gels. Letters on the y-axis of the graph indicate the template base; P indicates unextended 18-mer primer. Graphs represent percent of product terminated at each template position as a function of total products. Images are representative of, and data are the mean ± s.d. from, three independent experiments. Source data are provided as a Source Date file.
# The reactions were started by the addition of 3 μl of immunopurified telomerase eluent, incubated at 37 °C for 1 h, then terminated with 2 μl of […] and heat inactivated at 65 °C for 20 min. An equal volume of loading buffer (94% formamide, 0.1× TBE, 0.1% bromophenol blue, 0.1% xylene cyanol) was added to the reaction eluent. The samples were heat denatured for 10 min at 100 °C and loaded onto a 14% denaturing acrylamide gel (7 M urea, 1× TBE) and electrophoresed for 90 min at constant 38 W. Samples were imaged using a Typhoon phosphorimager (GE Healthcare). Percent primer extension was calculated with ImageQuant TL 8.2 by measuring the intensity of each product band and dividing by the total radioactivity in the lane or total products, as indicated in the figure legends.
# [3] = 6-thio-dGTP, per replicate N1-N3
compound,measurement,setting,value
Nc1nc2c(ncn2C2CC(O)C(COP(=O)(O)OP(=O)(O)OP(=O)(O)O)O2)c(=S)[nH]1 (stereo not shown) [6-thio-dGTP],Processivity R 1/2,telomerase [1]; 6-thio-dGTP 0.625μM,4.12 and 2.32 and 3.78
same,YIntercept (line fit of ln(100-%LB) vs # telomere repeats),telomerase [1]; 6-thio-dGTP 0.625μM,2.91 and 3.25 and 3.64
same,ln(100-%LB),"telomerase [1]; 6-thio-dGTP 0.625μM, telomere repeat 1",3.70 and 3.69 and 3.62
same,ln(100-%LB),"telomerase [1]; 6-thio-dGTP 0.625μM, telomere repeat 2",3.11 and 3.16 and 3.05
same,ln(100-%LB),"telomerase [1]; 6-thio-dGTP 0.625μM, telomere repeat 3",2.56 and 2.68 and 2.52
same,ln(100-%LB),"telomerase [1]; 6-thio-dGTP 0.625μM, telomere repeat 4",2.29 and 2.48 and 2.27
same,ln(100-%LB),"telomerase [1]; 6-thio-dGTP 0.625μM, telomere repeat 5",2.03 and 2.29 and 2.05
same,ln(100-%LB),"telomerase [1]; 6-thio-dGTP 0.625μM, telomere repeat 6",1.75 and 2.06 and 1.79
same,ln(100-%LB),"telomerase [1]; 6-thio-dGTP 0.625μM, telomere repeat 7",1.47 and 1.85 and 1.49
same,ln(100-%LB),"telomerase [1]; 6-thio-dGTP 0.625μM, telomere repeat 8",1.23 and 1.67 and 1.26
same,ln(100-%LB),"telomerase [1]; 6-thio-dGTP 0.625μM, telomere repeat 9",0.98 and 1.45 and 0.96
same,ln(100-%LB),"telomerase [1]; 6-thio-dGTP 0.625μM, telomere repeat 10",0.71 and 1.24 and 0.68
same,YIntercept (line fit of ln(100-%LB) vs # telomere repeats),telomerase [1]; 6-thio-dGTP 10μM,5.12 and 3.95 and 4.44
same,ln(100-%LB),"telomerase [1]; 6-thio-dGTP 10μM, telomere repeat 1",3.39 and 3.57 and 3.48
same,ln(100-%LB),"telomerase [1]; 6-thio-dGTP 10μM, telomere repeat 2",1.78 and 2.70 and 1.99
same,ln(100-%LB),"telomerase [1]; 6-thio-dGTP 10μM, telomere repeat 6",0.15
same,ln(100-%LB),"telomerase [1]; 6-thio-dGTP 10μM, telomere repeat 7",-0.27
same,ln(100-%LB),"telomerase [1]; 6-thio-dGTP 10μM, telomere repeat 8",-0.68
same,ln(100-%LB),"telomerase [1]; 6-thio-dGTP 10μM, telomere repeat 9",-1.63
same,IC50,"telomerase [1]; 6-thio-dGTP, mean of N1-N3, SD 1.45, read-out: Mean IC50 (processivity R 1/2)",5.48 µM
same,"Bottom (best-fit, processivity R 1/2 vs log concentration)",telomerase [1]; [3],0.3229 and 0.05037 and -0.0895
same,HillSlope (processivity),telomerase [1]; [3],-2.993 and -0.7699 and -0.9281
same,"Span (best-fit, processivity R 1/2 vs log concentration)",telomerase [1]; [3],3.504 and 3.529 and 1.482
same,"Top (best-fit, processivity R 1/2 vs log concentration)",telomerase [1]; [3],3.827 and 3.579 and 1.393
same,LogIC50 (processivity),"telomerase [1]; 6-thio-dGTP, per replicate N1-N3, concentration in μM",0.8984 and 0.6519 and 0.682
same,IC50,"telomerase [1]; 6-thio-dGTP, per replicate N1-N3, read-out: IC50 (processivity R 1/2)",4.49 µM and 4.81 µM
same,IC50,"telomerase [1]; cellular relevant natural dNTPs, modified dNTP titrated 0 to 10,000 μM, based on repeat processivity, mean ± SD, read-out: Telomerase processivity IC50",5 ± 2 µM
same,IC50,"telomerase [1]; log of processivity IC50 (concentration in μM), Supplementary Fig 8b, read-out: Log IC50 (converted)",5.01 µM
same,Extension after insertion of the modified dNTP (in words),"telomerase [2]; 50 μM each dNTP, analog substituted for natural dNTP",not a chain terminator
same,Percent of Total Product,"telomerase [2]; Fig 4b, Primer 1 (TTAGGG)3, terminated at rA3",11.46%
same,Percent of Total Product,"telomerase [2]; Fig 4b, Primer 1, terminated at rA4",5.50%
same,Percent of Total Product,"telomerase [2]; Fig 4b, Primer 1, terminated at rC1",37.27%
same,Percent of Total Product,"telomerase [2]; Fig 4b, Primer 1, terminated at rC2",6.46%
same,Percent of Total Product,"telomerase [2]; Fig 4b, Primer 1, terminated at rC6",34.87%
same,Percent of Total Product,"telomerase [2]; Fig 4b, Primer 1, terminated at rU5",3.92%
same,Percent of Total Product,"telomerase [2]; Fig 4c, Primer 2, terminated at rA3",49.91%
same,Percent of Total Product,"telomerase [2]; Fig 4c, Primer 2, terminated at rA4",4.12%
same,Percent of Total Product,"telomerase [2]; Fig 4c, Primer 2, terminated at rC1",23.36%
same,Percent of Total Product,"telomerase [2]; Fig 4c, Primer 2, terminated at rC2",22.82%
same,Percent of Total Product,"telomerase [2]; Fig 4c, Primer 2, terminated at rC6",8.70%
same,Percent of Total Product,"telomerase [2]; Fig 4c, Primer 2, terminated at rU5",0.81%
same,Percent of Total Product,"telomerase [2]; Fig 4d, Primer 3 (AGGGTT)3, terminated at rU5",4.61%
same,Percent of Total Product,"telomerase [2]; Fig 4d, Primer 3, terminated at rA3",1.16%
same,Percent of Total Product,"telomerase [2]; Fig 4d, Primer 3, terminated at rC1",49.66%
same,Percent of Total Product,"telomerase [2]; Fig 4d, Primer 3, terminated at rC2",7.38%
same,Percent of Total Product,"telomerase [2]; Fig 4d, Primer 3, terminated at rC6",37.00%
